What was measured:
[1] = In vitro lung delivery fraction test with multi-stage cascade impactor (Andersen sampler, Jethaler); format: physicochemical; conditions: 28.3 L/min; for Residual and Distributed Fractions of Active Ingredient: Capsule / Residual and Distributed Fractions of Active Ingredient: Inhaler device / Residual and Distributed Fractions of Active Ingredient: Stage 0 / Residual and Distributed Fractions of Active Ingredient: Stage 1 / Residual and Distributed Fractions of Active Ingredient: Stages 2–7 / Residual and Distributed Fractions of Active Ingredient: Throat / Capsule, residual active ingredient / Inhaler device, residual active ingredient / Stage 0, distribution of active ingredient / Stage 1, distribution of active ingredient / Stages 2–7, lung delivery fraction / Throat, distribution of active ingredient: S-36496 10%
Protocol: Capsulated preparations (The Japanese Pharmacopeia No. 2 HPMC capsules: manufactured by Shionogi Qualicaps Co., Ltd.) which were filled with about 40 mg each of three dry powder inhalations were prepared and mounted on an inhaler device (Jethaler; Unisia Jecs Corp.) The Jethaler was then attached to the mouthpiece of a cascade impactor (Andersen sampler Model AN-200) and inspired at a flow rate of 28.3 L/min., thereby dispersing the micronized medication in the capsule and measuring the residual active ingredient in the capsule and in the inhaler device as well as the distribution of the active ingredient at each stage with liquid chromatography. It was confirmed that in the in vitro test with cascade impactor, the lung delivery fraction at stages 2–7 corresponding to the respiring fraction differed substantially depending on the different carrier particles.
(§1) Capsulated preparations (The Japanese Pharmacopeia No. 2HPMC capsules: manufactured by Shionogi Qualicaps Co., Ltd.), which were filled with about 40 mg each of three dry powder inhalations, were prepared and mounted on an inhaler device (Jethaler®; Unisia Jecs Corp.). The Jethaler® brand device was then attached to the mouthpiece of a cascade impactor (Andersen sampler; Model AN-200) and inspired at a flow rate of 28.3 L/min., thereby dispersing the dry powder inhalation in the capsule and measuring the residual active ingredient in the capsule and in the inhaler device as well as the distribution of the active ingredient at each stage with liquid chromatography.
(§2) A capsulated preparation (The Japanese Pharmacopeia No. 2HPMC capsules: manufactured by Shionogi Qualicaps Co., Ltd.) which was filled with about 40 mg of the prepared dry powder inhalations was prepared and mounted on an inhaler device (Jethaler; Unisia Jecs Corp.) The Jethaler was then attached to the mouthpiece of a cascade impactor (Andersen sampler; Model AN-200) and inspired at a flow rate of 28.3 L/min., thereby dispersing the dry powder inhalation in the capsule and measuring the residual active ingredient in the capsule and in the inhaler device as well as the distribution of the active ingredient at each stage with liquid chromatography.
as §1, with “A capsulated preparation (The” for “Capsulated preparations (The”, “which was” for “which were”, “mg” for “mg each”, “chromatography. […]” for “chromatography.”
as §2, with “2 HPMC” for “2HPMC”, “Ltd.)” for “Ltd.) which was”, “inhalation” for “inhalations”

[2] = Dispersibility of active ingredient from carrier particles, laser diffraction particle size analyzer; format: physicochemical; conditions: Example 17: S-36496 10%, micronized lactose 1%, carrier trehalose 89%, particles of 10 μm or less
[3] = Example 10: S-36496 3.2%, carrier lactose 95.8%, micronized lactose 1.0%
[4] = Example 17: S-36496 10%, micronized lactose 1%, carrier trehalose 89%, Vertical Granulator 5 min
[5] = micronized lactose 1%, carrier trehalose 89% of particle size 48.6 μm
[6] = micronized lactose 1%, carrier trehalose 89% of particle size 81.0 μm
[7] = micronized lactose 1%, carrier trehalose 89% of particle size 97.9 μm
[8] = micronized lactose 1%, erythritol carrier 89% of mean particle diameter 53.8 μm
[9] = micronized lactose 1%, erythritol carrier 89% of mean particle diameter 81.6 μm
[10] = micronized lactose 1%, erythritol carrier 89% of mean particle diameter 155.9 μm

SMILES: CC(C)c1csc(COc2cccc(CN(CCCCNS(=O)(=O)c3ccc(Cl)cc3)S(=O)(=O)c3ccccc3C(=O)O)c2)n1 [Example S-36496, 2-{N-[4-(4-chlorobenzenesulfonylamino)butyl]-N-{3-[(4-isopropyl-2-thiazoyl)methoxy]benzyl}}sulfamoylbenzenolic acid]
- Residual and Distributed Fractions of Active Ingredient (%): Capsule [1, 3]: 8.2%
- Residual and Distributed Fractions of Active Ingredient (%): Inhaler device [1, 3]: 19.3%
- Residual and Distributed Fractions of Active Ingredient (%): Stage 0 [1, 3]: 19.5%
- Residual and Distributed Fractions of Active Ingredient (%): Stage 1 [1, 3]: 9.1%
- Residual and Distributed Fractions of Active Ingredient (%): Stages 2–7 [1, 3]: 18.2%
- Residual and Distributed Fractions of Active Ingredient (%): Throat [1, 3]: 25.7%
- Residual and Distributed Fractions of Active Ingredient (%): Capsule [1, 4]: 7.3%
- Residual and Distributed Fractions of Active Ingredient (%): Inhaler device [1, 4]: 19.4%
- Residual and Distributed Fractions of Active Ingredient (%): Stage 0 [1, 4]: 22.3%
- Residual and Distributed Fractions of Active Ingredient (%): Stage 1 [1, 4]: 5.8%
- Residual and Distributed Fractions of Active Ingredient (%): Stages 2–7 [1, 4]: 30.2%
- Residual and Distributed Fractions of Active Ingredient (%): Throat [1, 4]: 15.0%
- Residual and Distributed Fractions of Active Ingredient: Capsule [1, 5]: 9.0%
- Residual and Distributed Fractions of Active Ingredient: Inhaler device [1, 5]: 24.2%
- Residual and Distributed Fractions of Active Ingredient: Stage 0 [1, 5]: 24.7%
- Residual and Distributed Fractions of Active Ingredient: Stage 1 [1, 5]: 2.9%
- Residual and Distributed Fractions of Active Ingredient: Stages 2–7 [1, 5]: 6.4%
- Residual and Distributed Fractions of Active Ingredient: Throat [1, 5]: 32.8%
- Residual and Distributed Fractions of Active Ingredient: Capsule [1, 6]: 4.9%
- Residual and Distributed Fractions of Active Ingredient: Inhaler device [1, 6]: 19.1%
- Residual and Distributed Fractions of Active Ingredient: Stage 0 [1, 6]: 18.4%
- Residual and Distributed Fractions of Active Ingredient: Stage 1 [1, 6]: 2.0%
- Residual and Distributed Fractions of Active Ingredient: Stages 2–7 [1, 6]: 31.4%
- Residual and Distributed Fractions of Active Ingredient: Throat [1, 6]: 24.2%
- Residual and Distributed Fractions of Active Ingredient: Capsule [1, 7]: 5.8%
- Residual and Distributed Fractions of Active Ingredient: Inhaler device [1, 7]: 25.1%
- Residual and Distributed Fractions of Active Ingredient: Stage 0 [1, 7]: 18.2%
- Residual and Distributed Fractions of Active Ingredient: Stage 1 [1, 7]: 5.8%
- Residual and Distributed Fractions of Active Ingredient: Stages 2–7 [1, 7]: 17.9%
- Residual and Distributed Fractions of Active Ingredient: Throat [1, 7]: 27.2%
- Capsule, residual active ingredient [1, 8]: 3.0%
- Inhaler device, residual active ingredient [1, 8]: 18.2%
- Stage 0, distribution of active ingredient [1, 8]: 28.9%
- Stage 1, distribution of active ingredient [1, 8]: 3.5%
- Stages 2–7, lung delivery fraction [1, 8]: 24.4%
- Throat, distribution of active ingredient [1, 8]: 22.0%
- Capsule, residual active ingredient [1, 9]: 2.6%
- Inhaler device, residual active ingredient [1, 9]: 14.6%
- Stage 0, distribution of active ingredient [1, 9]: 21.8%
- Stage 1, distribution of active ingredient [1, 9]: 3.8%
- Stages 2–7, lung delivery fraction [1, 9]: 40.4%
- Throat, distribution of active ingredient [1, 9]: 16.9%
- Capsule, residual active ingredient [1, 10]: 2.5%
- Inhaler device, residual active ingredient [1, 10]: 2.9%
- Stage 0, distribution of active ingredient [1, 10]: 66.4%
- Stage 1, distribution of active ingredient [1, 10]: 15.2%
- Stages 2–7, lung delivery fraction [1, 10]: 11.3%
- Throat, distribution of active ingredient [1, 10]: 1.7%
- Dispersibility of drugs (active ingredient) (%) ([2]; Spray Pressure 0.2 kg/cm^2): 8.3%
- Dispersibility of drugs (active ingredient) (%) ([2]; Spray Pressure 0.3 kg/cm^2): 9.4%

Source: US7022311B1, “Powdery inhalational preparations and process for producing the same” (Kaken Pharmaceutical Co., Ltd., priority 1999, dated 2006)
